Read-outs that look alike come from different tables or passages of the source.
Key:
Format in all cases: binding, Tritirachium album limber
proteinase K (PK) [1] = biological target: T1, proteinase K (PK) (Parengyodontium album, UniProt P06873); experiment: Synchronous fluorescence spectroscopy of PK with ligand; conditions: 300 K, ligand increased from 0.0 to 25.0 μM; for maximum emission wavelength of PK, synchronous fluorescence (Figure 6B,D): peak near 274 nm; for maximum emission wavelength of PK, synchronous fluorescence (Figure 6A / 6C): peak near 279 nm
T1 construct: It is a single-chain protein consisting of 279 amino acid residues and has a molecular weight of 28,930 Da; purchased Jiuding Chemicals (Shanghai, China)
T1 sequence (P06873 106-384): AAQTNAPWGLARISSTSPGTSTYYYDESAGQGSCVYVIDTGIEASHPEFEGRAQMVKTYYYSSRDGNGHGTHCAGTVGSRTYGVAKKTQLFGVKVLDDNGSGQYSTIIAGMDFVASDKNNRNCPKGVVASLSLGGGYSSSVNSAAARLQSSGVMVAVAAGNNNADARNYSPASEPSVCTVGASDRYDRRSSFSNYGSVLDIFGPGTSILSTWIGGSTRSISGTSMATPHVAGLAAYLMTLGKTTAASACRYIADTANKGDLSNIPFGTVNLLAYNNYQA
Protocol: Synchronous fluorescence spectroscopy studies were performed to observe changes in the molecular environment of Tyr residues and Trp residues in the host structure, which are mainly responsible for fluorescence emission. Therefore, we used the characteristic information of Tyr and Trp residues, ∆λ = 15 nm and ∆λ = 60 nm, respectively, to probe the changes in the PK-MYR and PK-MYT complexes.
(§1) A Cary Eclipse fluorescence spectrometer (Varian, Palo Alto, CA, USA) was used to determine specific changes in the fluorescence emission of PK at different temperatures. All measurements were recorded at an excitation wavelength of 278 nm and the emission wavelength of 290–450 nm. The excitation and emission slits were adjusted to 5 nm. In synchronous fluorescence measurements, ∆λ was set to 60 and 15 nm.

proteinase K (PK) [2] = biological target: T1, proteinase K (PK); experiment: Förster resonance energy transfer (FRET) between PK (donor) and ligand (acceptor); conditions: 290 K; PK and ligand 3.46 μM
Text: The distance and energy transfer between two chromophores, commonly known as the donor and the acceptor, may be computed by the Förster resonance energy transfer (FRET) theory. […] The energy transfer efficiency and binding distance were estimated according to Equation (6). (6) E=1−F/F0=RC^6/RC^6+r^6 where E is the energy transfer efficiency between the donor and the acceptor, r is the binding distance between the donor and the acceptor, and RC is the critical distance when the energy transfer efficiency is 50%, the value of which can be calculated using Equation (7). (7) RC^6=8.8×10^−25(K^2⋅Φ⋅n^−4⋅J) where K^2 is the spatial orientation factor associated with the geometry of the dipole donor and acceptor and generally takes the value of 2/3. Φ is the fluorescence quantum yield of the donor. The symbol n is the average refractive index of the medium and usually takes the value of 1.336 as the average value of water and organic matter. J is the spectral overlap integral between the fluorescence emission spectrum of the donor and the absorption spectrum of the acceptor, and the value is calculated by Equation (8). (8) J=∑(FD(λ)⋅ε(λ)⋅λ^4⋅Δλ)/∑(FD(λ)⋅Δλ) where FD(λ) is the corrected fluorescence intensity of the donor in the wavelength range, ε(λ) is the molar absorption constant of the acceptor at the wavelength, and ∆λ is the span of the wavelength. Following the FRET theory, the main factors affecting the energy transfer efficiency include the fluorescence production of the donor, the overlap of the fluorescence emission spectrum of the donor with the UV–Vis absorption spectrum of the acceptor, and the binding distance between the donor and the acceptor that must be within a specified range of 1 to 10 nm.
Förster resonance energy transfer (FRET) was tracked by overlapping PK emission spectrum (donor) with MYR or MYT absorption spectrum (acceptor). A concentration of 3.46 μM PK was chosen for the fluorescence emission spectroscopy measurements.

proteinase K (PK) [3] = biological target: T1, proteinase K (PK); experiment: Site-tagged competition experiments with ibuprofen and cytisine; conditions: for Ksv of free PK: no site marker; for Ksv of PK–cytisine complex as % of that of free PK: site marker cytisine; for Ksv of PK–ibuprofen complex as % of that of free PK: site marker ibuprofen
Text: To determine the binding site of PK, two typical ligands including ibuprofen and cytisine were chosen to perform competitive binding experiments. […] The site-labeling experiments were still performed using Equations (1) and (2) for correction and data analysis, respectively. […] It has been well known that neutral compounds such as ibuprofen and cytisine are likely to bind with proteins through hydrophobic interactions and hydrogen binding. […] This is consistent with the results obtained from the thermodynamic calculations.
For in site labeling competition experiments, an agent such as ibuprofen or cytisine of 3.46 μM was first mixed with PK. […] The excitation wavelengths for PK–ibuprofen and PK–cytisine were 265 and 280 nm, respectively. Fluorescence spectra were analyzed using the Stern–Volmer equation.

proteinase K (PK) [4] = biological target: T1, proteinase K (PK); experiment: Fluorescence quenching of proteinase K by MYR/MYT (Stern–Volmer, double-logarithmic and Van't Hoff analysis); conditions: for Stern–Volmer constant Ksv: 3.46 μM PK, pH 8.0; for Kd: double logarithmic equation, read-out: binding constant KA (converted); for fluorescence quenching rate constant Kq: τ0 1 × 10^−8 s; for enthalpy change ∆H: Van't Hoff equation, 290, 300, 310 K; for fluorescence quenching process (mechanism): from Kq versus 2 × 10^10 L·mol^−1·s^−1
Text: Fluorescence spectroscopy is an effective method used to investigate conformational changes of proteins and binding parameters of ligands to fluorophore residues of proteins such as Trp, Tyr or Phe. PK contains two Trp residues (Trp8 and Trp212), which make it possible to emit fluorescence. […] The process by which this phenomenon occurs is called fluorescence quenching, which is the result of the altered microenvironment of PK. To eliminate the interference of fluorescence quenching from the inner filter effect, the experiments were corrected for fluorescence intensity using Equation (1). (1) Fcorr=Fobs×e^(Aex+Aem)/2 where Fcorr and Fobs are the fluorescence emission intensity values of the corrected and pre-corrected systems, respectively. Aex and Aem are the UV–Vis absorption intensities of quencher and PK at excitation and emission wavelengths, respectively.
To investigate the differences in the fluorescence quenching patterns of the PK-MYR and PK-MYT complexes, the Stern–Volmer equation (Equation (2)) was used for analysis.
Fluorescence quenching could be categorized into two processes, namely dynamic quenching and static quenching. Dynamic quenching occurs when the quencher collides with biological macromolecules, while static quenching is caused by the formation of complexes. For the dynamic process, the increase in Ksv along with the increase in temperature is expected, and the opposite is seen for the static quenching process. […] Consequently, we know that the combination of PK and MYR/MYT could form PK-MYR and PK-MYT complexes, leading to the static quenching mechanism.
Normally, the maximum collisional quenching constant Kq is about 2 × 10^10 L·mol^−1·s^−1 for small molecule quenchers and biomolecules.
The binding constants and the number of binding sites can be calculated by using a double logarithmic equation [20, 21] (Equation (3)). (3) log[(F0−F)/F]=logKA+nAlog[Q] where KA represents the binding constant between the biomolecule and the quencher, and nA implies the number of binding sites between the quencher and the fluorophor. […] It could be proposed that the binding constant of PK-MYT is larger than that of PK-MYR at the temperature of 290 K, and these two complexes share a similar binding site number n around one.
(4) lnKA=−ΔH/RΤ+ΔS/R (5) ΔG=−RTInKA=ΔH−TΔS where R is the molar gas constant with a general value of 8.314 J·mol^−1·K^−1. ∆H and ∆S are the enthalpy and entropy changes during the fluorescence quenching, respectively. The ∆G in Equation (5) is the Gibbs free energy change in the reaction. In general, the interaction between quenchers and fluorophors can be explained by four forces, including hydrogen bonding, van der Waals forces, electrostatic forces, and hydrophobic interactions. The sign and magnitude of ∆H and ∆S can be used to distinguish the binding forces and properties of the complexes. When ∆H and ∆S are positive, hydrophobic interactions dominate; when both ∆H and ∆S are negative, they can be explained as hydrogen bonding and van der Waals forces; when ∆H and ∆S are very low negative or positive values, there exist electrostatic interactions.
as §1

[5] = site marker cytisine 3.46 μM, room temperature, 1 h
[6] = site marker ibuprofen 3.46 μM, room temperature, 1 h

| Compound | maximum emission wavelength of PK, synchronous fluorescence (Figure 6B,D) (proteinase K (PK) [1]) | maximum emission wavelength of PK, synchronous fluorescence (Figure 6A / 6C) (proteinase K (PK) [1]) | critical distance RC (proteinase K (PK) [2]) | energy transfer efficiency E (proteinase K (PK) [2]) | Ksv of free PK (proteinase K (PK) [3]) | Ksv of PK–cytisine complex as % of that of free PK (proteinase K (PK) [3]) | Stern–Volmer equation quenching constant KSV (proteinase K (PK) [3]; [5]) | Ksv of PK–ibuprofen complex as % of that of free PK (proteinase K (PK) [3]) | Stern–Volmer equation quenching constant KSV (proteinase K (PK) [3]; [6]) | Stern–Volmer equation quenching constant KSV (proteinase K (PK) [3]; site marker: blank (free PK)) | Gibbs free energy change ∆G (proteinase K (PK) [4]; T 290 K) | number of binding sites nA (proteinase K (PK) [4]; T 290 K) | Stern–Volmer constant Ksv (proteinase K (PK) [4]; T 290 K) | fluorescence quenching rate constant Kq (proteinase K (PK) [4]; T 290 K) | Gibbs free energy change ∆G (proteinase K (PK) [4]; T 300 K) | number of binding sites nA (proteinase K (PK) [4]; T 300 K) | Stern–Volmer constant Ksv (proteinase K (PK) [4]; T 300 K) | fluorescence quenching rate constant Kq (proteinase K (PK) [4]; T 300 K) | Gibbs free energy change ∆G (proteinase K (PK) [4]; T 310 K) | number of binding sites nA (proteinase K (PK) [4]; T 310 K) | other results |
| --- | --- | --- | --- | --- | --- | --- | --- | --- | --- | --- | --- | --- | --- | --- | --- | --- | --- | --- | --- | --- | --- |
| O=c1c(O)c(-c2cc(O)c(O)c(O)c2)oc2cc(O)cc(O)c12 [MYR, Myricetin] | no shift | 279.0 nm | 3.61 nm | 0.105 | 24600 L/mol | 70.73% | 1.74 10^4 L·mol^−1 | 69.51% | 1.71 10^4 L·mol^−1 | 2.46 10^4 L·mol^−1 | -6.601 kcal/mol | 1.0 | 3.57 10^4 L·mol^−1 | 3.57 10^12 L·mol^−1·s^−1 | -6.03 kcal/mol | 0.9 | 2.46 10^4 L·mol^−1 | 2.46 10^12 L·mol^−1·s^−1 | -5.442 kcal/mol | 0.9 | binding distance r (proteinase K (PK) [2]): 5.11 nm; Kd (proteinase K (PK) [4]; T 290 K): 16.9 µM; Kd (proteinase K (PK) [4]; T 300 K): 40.5 µM; Stern–Volmer constant Ksv (proteinase K (PK) [4]; T 310 K): 1.90 10^4 L·mol^−1; Kd (proteinase K (PK) [4]; T 310 K): 114 µM; fluorescence quenching rate constant Kq (proteinase K (PK) [4]; T 310 K): 1.90 10^12 L·mol^−1·s^−1; enthalpy change ∆H (proteinase K (PK) [4]): -23.42 kcal/mol; fluorescence quenching process (mechanism) (proteinase K (PK) [4]): static |
| Myricitrin [MYT] | 274.0 to 276.0 nm | 279.0 to 280.0 nm | 3.42 nm | 0.128 | 20600 L/mol | 38.14% | 0.78 10^4 L·mol^−1 | 61.52% | 1.27 10^4 L·mol^−1 | 2.06 10^4 L·mol^−1 | -6.558 kcal/mol | 1.1 | 2.20 10^4 L·mol^−1 | 2.20 10^12 L·mol^−1·s^−1 | -6.018 kcal/mol | 1.0 | 2.06 10^4 L·mol^−1 | 2.06 10^12 L·mol^−1·s^−1 | -5.28 kcal/mol | 0.9 | Stern–Volmer constant Ksv (proteinase K (PK) [4]; T 310 K): 1.88 10^4 L·mol^−1; fluorescence quenching rate constant Kq (proteinase K (PK) [4]; T 310 K): 1.88 10^12 L·mol^−1·s^−1; enthalpy change ∆H (proteinase K (PK) [4]): -25.098 kcal/mol; fluorescence quenching process (mechanism) (proteinase K (PK) [4]): static |

— paper PMC10048853 (International Journal of Molecular Sciences, 2023)
